According to ChEMBL document CHEMBL6134827, “The discovery of novel antimicrobial peptides against drug-resistant bacteria based on fragments fusion strategy” (Eur J Med Chem, 2025):
The source made the active and inactive calls. The calls are words filed in the database; no cut-off is given here. Non-standard residues stand in square brackets, D forms with d. Residues, ends and D or L forms follow the SMILES beside them. Dab = NCC[C@H](N)C(=O)O

Legend:
Pseudomonas aeruginosa [1] = test: Induction of morphological changes in multidrug resistant Pseudomonas aeruginosa assessed as surface roughening at 16 microg/ml incubated for 1 hrs by SEM analysis; assay type: functional, organism-based; conditions: dose 16.0 µg/ml
Escherichia coli = test: Antimicrobial activity against multidrug resistant Escherichia coli assessed as inhibition of visible microbial growth incubated for 18 hrs by broth microdilution method; assay type: functional
Pseudomonas aeruginosa [2] = test: In vivo antibacterial activity against multidrug resistant Pseudomonas aeruginosa infected in acute peritonitis C57BL/6 mouse model assessed as reduction in bacterial load in kidney at 10 to 20 mg/kg, ip measured after 12 hrs; assay type: functional, organism-based; conditions: dose 10-20 mg/kg
Pseudomonas aeruginosa [3] = test: Induction of morphological changes in multidrug resistant Pseudomonas aeruginosa assessed as effect on cell integrity at 16 microg/ml incubated for 1 hrs by SEM analysis; assay type: functional, organism-based; conditions: dose 16.0 µg/ml
[4] = Toxicity in female C57BL/6 mouse assessed as effect on body weight at 5 to 20 mg/kg, ip administered daily and measured for 5 days; assay type: organism-based; conditions: in vivo, 120 h, dose 5-20 mg/kg, time 5 day
[5] = Hemolytic activity in human red blood cell assessed as hemolysis at 128 microg/ml measured after 1 hrs by microplate reader assay relative to control; assay type: toxicity, cell-based, Erythrocyte; conditions: red blood cells, at 128 µg/mL, read-out: Activity
[6] = Cytotoxicity against HEK293T cells assessed as survival rate at 64 microg/ml measured after 24 hrs by CCK-8 assay relative to control; assay type: toxicity, cell-based, HEK-293T; conditions: human, at 64 µg/mL, read-out: Survival
[7] = Hepatotoxicity in female C57BL/6 mouse assessed as change in AST level at 20 mg/kg, ip administered daily and measured for 5 days; assay type: toxicity, organism-based; conditions: in vivo, 120 h, time 5 day
Pseudomonas aeruginosa [8] = test: In vivo antibacterial activity against multidrug resistant Pseudomonas aeruginosa infected in acute peritonitis C57BL/6 mouse model assessed as decrease in TNF-alpha level in serum at 5 to 20 mg/kg, ip measured after 12 hrs by ELISA; assay type: functional, organism-based; conditions: dose 5-20 mg/kg
[9] = Toxicity in female C57BL/6 mouse assessed as histopathological change in lung at 20 mg/kg, ip administered daily and measured for 5 days by H and E staining based analysis; assay type: organism-based; conditions: in vivo, 120 h, time 5 day
Acinetobacter baumannii = test: Antimicrobial activity against multidrug resistant Acinetobacter baumannii assessed as inhibition of visible microbial growth incubated for 18 hrs by broth microdilution method; assay type: functional
Pseudomonas aeruginosa [10] = test: In vivo antibacterial activity against multidrug resistant Pseudomonas aeruginosa infected in acute peritonitis C57BL/6 mouse model assessed as reduction in tubular dilation at 5 to 20 mg/kg, ip measured after 12 hrs by H and E staining based analysis; assay type: functional, organism-based; conditions: dose 5-20 mg/kg
Pseudomonas aeruginosa [11] = test: Antimicrobial activity against multidrug resistant Pseudomonas aeruginosa assessed as inhibition of visible microbial growth incubated for 18 hrs by broth microdilution method; assay type: functional
[12] = Cytotoxicity against human BEAS-2B cells assessed as inhibition of cell growth measured after 24 hrs by CCK-8 assay; assay type: toxicity, cell-based
Pseudomonas aeruginosa [13] = test: In vivo antibacterial activity against multidrug resistant Pseudomonas aeruginosa infected in acute peritonitis C57BL/6 mouse model assessed as decrease in IL-1beta level in serum at 5 to 20 mg/kg, ip measured after 12 hrs by ELISA; assay type: functional, organism-based; conditions: dose 5-20 mg/kg
Pseudomonas aeruginosa [14] = test: In vivo antibacterial activity against multidrug resistant Pseudomonas aeruginosa infected in acute peritonitis C57BL/6 mouse model assessed as reduction in bacterial load in liver at 10 to 20 mg/kg, ip measured after 12 hrs; assay type: functional, organism-based; conditions: dose 10-20 mg/kg
Staphylococcus aureus [15] = test: Drug resistance, ratio of MIC for Staphylococcus aureus ATCC 29213 after 16 passages exposure to MIC for Staphylococcus aureus ATCC 29213 after first exposure; assay type: functional
Cell membrane [16] = test: Disruption of cell membrane in multidrug resistant Staphylococcus aureus assessed as increase in red fluorescence at 16 microg/mL incubated after 2 hrs by SYTO9/PI double staining based fluorescence confocal microscopic analysis; assay type: subcellular; conditions: dose 16.0 µg/ml
[17] = Hepatotoxicity in female C57BL/6 mouse assessed as change in ALT level at 20 mg/kg, ip administered daily and measured for 5 days; assay type: toxicity, organism-based; conditions: in vivo, 120 h, time 5 day
Pseudomonas aeruginosa [18] = test: Antimicrobial activity against multidrug resistant Pseudomonas aeruginosa at 1.9 to 500 microg/ml in presence of phosphatidylglycerol acid by checkerboard microdilution assay; assay type: functional, organism-based; conditions: dose 1.9-500 µg/ml
Pseudomonas aeruginosa [19] = test: Antimicrobial activity against multidrug resistant Pseudomonas aeruginosa at 1.9 to 500 microg/ml in presence of lipopolysaccharide by checkerboard microdilution assay; assay type: functional, organism-based; conditions: dose 1.9-500 µg/ml
[20] = Toxicity in female C57BL/6 mouse assessed as histopathological change in spleen at 20 mg/kg, ip administered daily and measured for 5 days by H and E staining based analysis; assay type: organism-based; conditions: in vivo, 120 h, time 5 day
Pseudomonas aeruginosa [21] = test: In vivo antibacterial activity against multidrug resistant Pseudomonas aeruginosa infected in acute peritonitis C57BL/6 mouse model assessed as increase in mouse survival at 5 to 20 mg/kg, ip measured after 12 hrs; assay type: functional, organism-based; conditions: dose 5-20 mg/kg
Cell membrane [22] = test: Induction of outer cell membrane permeabilization in multidrug resistant Pseudomonas aeruginosa assessed as increase in fluorescence intensity at >16 microg/ml measured for 12 mins by NPN uptake assay; assay type: subcellular; conditions: dose > 16.0 µg/ml
[23] = Nephrotoxicity in female C57BL/6 mouse assessed as change in BUN level at 20 mg/kg, ip administered daily and measured for 5 days; assay type: toxicity, organism-based; conditions: in vivo, 120 h, time 5 day
[24] = Toxicity in female C57BL/6 mouse assessed as histopathological change in heart at 20 mg/kg, ip administered daily and measured for 5 days by H and E staining based analysis; assay type: organism-based; conditions: in vivo, 120 h, time 5 day
Staphylococcus aureus [25] = test: Induction of morphological changes in multidrug resistant Staphylococcus aureus assessed as presence of cellular debris at 16 microg/ml incubated for 1 hrs by SEM analysis; assay type: functional, organism-based; conditions: dose 16.0 µg/ml
Staphylococcus aureus [26] = test: Antibacterial activity against multidrug resistant Staphylococcus aureus assessed as reduction in bacterial growth at 32 microg/mL by bactericidal kinetic assay; assay type: functional, organism-based; conditions: dose 32.0 µg/ml, time 0.5-4 hrs
Staphylococcus aureus [27] = test: Antimicrobial activity against multidrug resistant Staphylococcus aureus assessed as inhibition of visible microbial growth incubated for 18 hrs by broth microdilution method; assay type: functional
Staphylococcus aureus [28] = test: Induction of morphological changes in multidrug resistant Staphylococcus aureus assessed as effect on cell integrity at 16 microg/ml incubated for 1 hrs by SEM analysis; assay type: functional, organism-based; conditions: dose 16.0 µg/ml
Staphylococcus aureus [29] = test: Drug resistance, ratio of MIC for multidrug resistant Staphylococcus aureus after 16 passages to MIC for multidrug resistant Staphylococcus aureus after first exposure; assay type: functional
[30] = Cytotoxicity against human BEAS-2B cells assessed as survival rate at 64 microg/ml measured after 24 hrs by CCK-8 assay relative to control; assay type: toxicity, cell-based; conditions: at 64 µg/mL, read-out: Survival
Cell membrane [31] = test: Induction of cytoplasmic membrane depolarization in multidrug resistant Pseudomonas aeruginosa assessed as increase in fluorescence intensity measured for 12 min by DISC3-5 dye based fluorescence analysis; assay type: subcellular; conditions: dose 4-32 µg/ml
Pseudomonas aeruginosa [32] = test: Antimicrobial activity against multidrug resistant Pseudomonas aeruginosa assessed as inhibition of bacterial growth at >=125 microg/ml in presence of lipoteichoic acid by checkerboard microdilution assay; assay type: functional, organism-based; conditions: dose >= 125.0 µg/ml
Pseudomonas aeruginosa [33] = test: In vivo antibacterial activity against multidrug resistant Pseudomonas aeruginosa infected in acute peritonitis C57BL/6 mouse model assessed as reduction in bacterial load in lung at 10 to 20 mg/kg, ip measured after 12 hrs; assay type: functional, organism-based; conditions: dose 10-20 mg/kg
[34] = Cytotoxicity against human LO2 cells assessed as survival rate at 64 microg/ml measured after 24 hrs by CCK-8 assay relative to control; assay type: toxicity, cell-based, L02; conditions: at 64 µg/mL, read-out: Survival

With CC(C)C[C@H](NC(=O)CN)C(=O)N[C@@H](CCCNC(=N)N)C(=O)N[C@@H](CCN)C(=O)N[C@@H](Cc1c[nH]c2ccccc12)C(=O)N[C@@H](CC(C)C)C(=O)N[C@@H](CCCNC(=N)N)C(=O)N[C@@H](CCN)C(=O)N[C@@H](Cc1ccccc1)C(=O)N[C@@H](CCN)C(=O)N[C@@H](CCN)C(=O)N[C@@H](Cc1ccccc1)C(=O)N[C@@H](Cc1c[nH]c2ccccc12)C(=O)O (H-GLR[Dab]WLR[Dab]F[Dab][Dab]FW-OH) the Activity (Pseudomonas aeruginosa [1]) was “Active”, the MIC (Escherichia coli) was 4.8 µM and the Activity (Pseudomonas aeruginosa [2]) was “Active”. For the same compound, the Activity (Pseudomonas aeruginosa [3]) was “Active”, the Activity [4] was “Non-toxic” and the hemolysis at 1 h, 128 µg/mL [5] was < 10%. For the same compound, the viability at 24 h, 64 µg/mL [6] was > 80%, the Activity [7] was “Non-toxic” and the Activity (Pseudomonas aeruginosa [8]) was “Active”. For the same compound, the Activity [9] was “Non-toxic”, the MIC (Acinetobacter baumannii) was 4.8 µM and the Activity (Pseudomonas aeruginosa [10]) was “Active”. The MIC (Pseudomonas aeruginosa [11]) was 4.8 µM, the CC50 at 24 h [12] was > 64 µg/mL and the Activity (Pseudomonas aeruginosa [13]) was “Active”. The Activity (Pseudomonas aeruginosa [14]) was “Active”, the Ratio (Staphylococcus aureus [15]) was <2 and the Activity (Cell membrane [16]) was “Active”. For the same compound, the Activity [17] was “Non-toxic”, the Activity (Pseudomonas aeruginosa [18]) was “inactive” and the Activity (Pseudomonas aeruginosa [19]) was “inactive”. The Activity [20] was “Non-toxic”, the Activity (Pseudomonas aeruginosa [21]) was “Active” and the Activity (Cell membrane [22]) was “Active”. The Activity [23] was “Non-toxic”, the Activity [24] was “Non-toxic” and the Activity (Staphylococcus aureus [25]) was “Active”. The Activity (Staphylococcus aureus [26]) was “Time-dependent-effect”, the MIC (Staphylococcus aureus [27]) was 4.8 µM and the Activity (Staphylococcus aureus [28]) was “Active”. The Ratio (Staphylococcus aureus [29]) was <2, the viability at 24 h, 64 µg/mL [30] was > 80% and the Activity (Cell membrane [31]) was “Dose-dependent-effect”. For the same compound, the Activity (Pseudomonas aeruginosa [32]) was “Active; Modest Inhibition Observed”, the Activity (Pseudomonas aeruginosa [33]) was “Active” and the viability at 24 h, 64 µg/mL [34] was > 80%.
